# Measurements: publication PMC5826112, “Intrapulmonary Pharmacokinetics of Relebactam, a Novel β-Lactamase Inhibitor, Dosed in Combination with Imipenem-Cilastatin in Healthy Subjects” (Antimicrobial Agents and Chemotherapy, 2018)
# Like-named read-outs stand apart in the source and are kept apart here.
# What was measured:
# [1] = Relebactam population PK model (two-compartment plasma model with time-invariant ELF partition coefficient); assay type: in vivo, human (healthy subjects)
# Method: Population PK analysis was conducted using NONMEM (version 7.3) software (ICON plc., Dublin, Ireland). The first-order conditional estimation with interaction (FOCEI) method was applied for parameter estimation. […] To elucidate the relationship between plasma and ELF concentrations, penetration into the ELF was explored using three approaches, each using a naive pooled data approach: (i) a three-compartment model with bidirectional mass transfer between the ELF compartment and the central volume, (ii) a time-invariant partition coefficient driven by the predicted unbound plasma concentration, and (iii) an effect compartment with an input rate constant driven by the concentration difference between the volume in the central compartment and the effect compartment.
# The equations comprising the partition coefficient model are as follows: (1) dA1/dt=Q2/V2A2−Q2/V1A1−CL/V1A1 (2) dA2/dt=Q2/V1A1−Q2/V2A2 (3) CELF=kELF·fu,REL·A1/V1 where A1 is the amount of drug in the central compartment, A2 is the amount of drug in the peripheral compartment, CL is the plasma clearance, Q2 is the intercompartmental clearance, V1 is the volume of distribution in the central compartment, V2 is the volume of distribution in the peripheral compartment, CELF is the relebactam concentration in the ELF, fu,ELF is the free fraction of relebactam in plasma (∼80%), kELF is the partition coefficient for distribution into the ELF space, and t is time.
# The free fraction in the ELF was assumed to be 100%. Different residual error models (additive, proportional, and combined) were tested for both the plasma and ELF concentrations of relebactam. Model development, including the selection of the structural and residual error model, was based upon the success of minimization, numerical comparison of the objective function values, the precision of the parameter estimates, and the generation of standard model diagnostic plots. The PK of imipenem were not modeled, as the lung penetration data from this study were previously described using a population PK approach ([21]).
# [2] = design: method as in earlier work; conditions: cited from earlier work
# [3] = design: method as in PMID 25403667; conditions: thigh infection model; cited from earlier work
# [4] = design: method as in earlier work; conditions: relebactam doses of 125 mg or higher; exceeds single-dose target; cited from earlier work
# [5] = design: method as in data on file; conditions: mice; ref data on file; cited from earlier work
# [6] = design: method as in PMID 27503659, PMID 28575389; conditions: coadministration with imipenem-cilastatin, phase 2 clinical studies; cited from earlier work
# [7] = no reference given; cited from earlier work
# [8] = Intrapulmonary (ELF, AC) and plasma pharmacokinetics after multiple-dose IV relebactam with imipenem-cilastatin, bronchoscopy/BAL, noncompartmental analysis; assay type: in vivo, human (healthy subjects); conditions: for t1/2 (terminal half-life) / half-life / AUC(0-inf) / Cmax / Tmax / AUC(0-t): mean profile; for half-life: read-out: t1/2 (terminal half-life) (converted); for Kp at 1 h: 1.0 h after last dose; for Kp at 3 h: 3.0 h after last dose; for AUC(0-inf): noncompartmental analysis; for AUC(0-t): read-out: AUC0–3
# Method: Dosing and administration of imipenem-cilastatin were carried out in a manner consistent with the recommended labeled posology. BAL fluid specimens were obtained during bronchoscopy for the determination of the relebactam and imipenem concentrations in the ELF and AC. Four aliquots of normal saline (50 ml each) were sequentially instilled and aspirated after each instillation. The first aspirate was discarded, and the remaining aspirates were pooled and used to obtain urea and drug level measurements. Aliquots were obtained for cell count/differential, and the remainder of the pooled aspirates was centrifuged. The liquid aspirate and cell pellet were separated and stored at −70°C. The supernatant was sent for urea and drug level measurements. Blood samples were collected prior to the first and fifth doses of study drug for the determination of relebactam and imipenem plasma concentrations. Blood samples were also collected during the bronchoscopy/BAL procedure for the determination of relebactam, imipenem, and urea concentrations. Relebactam and imipenem levels in plasma, pulmonary ELF, and AC were measured simultaneously via acetonitrile protein precipitation and hydrophilic interaction liquid chromatography (HILIC) with detection via liquid chromatography-tandem mass spectrometry (LC-MS/MS). The system consisted of a Waters Acquity ultraperformance liquid chromatograph (Waters Corp., Milford, MA) and an API 4000 or 5000 triple-quadrupole tandem mass spectrometer (Sciex, Framingham, MA) equipped with a turbo-ion spray interface and operated in the positive ionization mode. The multiple reaction monitoring (MRM) transitions monitored were m/z 349 → 269 for relebactam, m/z 300 → 98 for imipenem, and m/z 354 → 274 and m/z 307 → 98 for their respective internal standards. […] The ELF volumes recovered by BAL were determined by using urea as an endogenous marker to provide a dilution ratio by measurement of urea concentrations in the BAL fluid and serum ([33]). […] The mean value for each time point was used to conduct the noncompartmental analysis using Phoenix (version 6.3) software (Pharsight Corporation, Mountain View, CA) and to calculate the values of the PK parameters on the basis of the mean profile in each matrix.
# [9] = both sexes, human, AC/plasma, intravenous, same regimen, n=4, read-out: AC/plasma concn GMR (90% CI)
# [10] = both sexes, human, ELF/plasma, intravenous, same regimen, n=4, read-out: ELF/plasma concn GMR (90% CI)
# [11] = both sexes, human, intravenous, AC, same regimen
# [12] = both sexes, human, intravenous, ELF, same regimen
# [13] = both sexes, human, intravenous, plasma, same regimen
structure (smiles),measurement,setting,value
O=C(NC1CCNCC1)[C@@H]1CC[C@@H]2CN1C(=O)N2OS(=O)(=O)O [relebactam],Kp,"[1]; human, ELF / unbound plasma, intravenous, driven by predicted unbound plasma concentration, read-out: Penetration coefficient for ELF (θkELF)",0.553
same,Kp,"[1]; human, ELF/unbound plasma, intravenous, based on free drug levels, read-out: time-invariant partition coefficient (ELF) estimated by the model",0.55
same,clearance,"[1]; human, plasma, intravenous, population PK structural model, read-out: Clearance (θCL) (converted)",153 mL/min
same,Vd,"[1]; human, plasma, intravenous, population PK structural model, read-out: Volume of distribution in the central compartment (θVc)",15.3 L
same,Intercompartmental clearance (θQ2),[1]; population PK structural model,2.64 L/h
same,Volume of distribution in the peripheral compartment (θVp),[1]; population PK structural model,10.6 L
same,single-dose target (AUC0–∞),[2]; derived from the target of 150 μM · h after four times daily dosing,37.5 µM·h
same,required exposure (AUC0–24) for efficacy,[2]; pulmonary infection model,150 µM·h
same,required exposure (AUC0–24) for efficacy,[3],~100 µM·h
same,exposure (AUC0–∞),[4],> 37.5 µM·h
same,"penetration into the murine lung, ratio of total drug levels in the lung to total drug levels in plasma",[5],approximately 34%
same,tolerability,[6],generally well tolerated
same,unbound in plasma (free fraction),[7],~80%
same,t1/2 (terminal half-life),"[8]; AC, same regimen",2.25 h
same,t1/2 (terminal half-life),"[8]; ELF, same regimen",1.29 h
same,GMR for the relebactam concentration versus the imipenem concentration in ELF,"[8]; at the Tmax of imipenem (0.5 h), 90% CI 45%, 49%",47%
same,half-life,"[8]; both sexes, human, AC, intravenous, AC, same regimen",2.3 h
same,Kp,"[8]; both sexes, human, AC/plasma, intravenous, mean profiles, after adjustment for protein binding, read-out: relative exposure (AUC0–∞) in AC versus plasma",0.36
same,Kp,"[8]; both sexes, human, AC/plasma, intravenous, same regimen, 0.5 to 3 h after last dose, read-out: GMRs for AC/plasma concentrations, range across time points",0.14 to 0.51
same,Kp at 0.5 h,"[8]; both sexes, human, AC/plasma, intravenous, same regimen, 0.5 h after last dose, n=4, read-out: AC/plasma concn GMR (90% CI)",0.14
same,Kp at 1 h,[8]; [9],0.25
same,Kp at 1.5 h,"[8]; both sexes, human, AC/plasma, intravenous, same regimen, 1.5 h after last dose, n=4, read-out: AC/plasma concn GMR (90% CI)",0.38
same,Kp at 3 h,[8]; [9],0.51
same,half-life,"[8]; both sexes, human, ELF, intravenous, ELF, same regimen",1.3 h
same,concentration at 0.5 h,"[8]; both sexes, human, ELF, intravenous, same regimen, 0.5 h after last dose, n=4, read-out: concn in ELF, GM",14.9 µM
same,concentration at 1 h,"[8]; both sexes, human, ELF, intravenous, same regimen, 1 h after last dose, n=4, read-out: concn in ELF, GM",10.9 µM
same,concentration at 1.5 h,"[8]; both sexes, human, ELF, intravenous, same regimen, 1.5 h after last dose, n=4, read-out: concn in ELF, GM",9.49 µM
same,concentration at 3 h,"[8]; both sexes, human, ELF, intravenous, same regimen, 3 h after last dose, n=4, read-out: concn in ELF, GM",4.27 µM
same,Kp,"[8]; both sexes, human, ELF/plasma, intravenous, calculated as 100 · ELF AUC0–∞/plasma AUC0–∞/0.8, adjusted for protein binding (80% unbound in plasma, 100% free in ELF), read-out: Adjusted ELF/plasma AUC0–∞ ratio",0.54
same,Kp,"[8]; both sexes, human, ELF/plasma, intravenous, calculated as 100 · ELF AUC0–∞/plasma AUC0–∞, mean profiles, read-out: ELF/plasma AUC0–∞ ratio",0.43
same,Kp,"[8]; both sexes, human, ELF/plasma, intravenous, same regimen, 0.5 to 3 h after last dose, read-out: GMRs for ELF/plasma concentrations, range across time points",0.32 to 0.51
same,Kp at 1 h,[8]; [10],0.35
same,Kp at 1.5 h,"[8]; both sexes, human, ELF/plasma, intravenous, same regimen, 1.5 h after last dose, n=4, read-out: ELF/plasma concn GMR (90% CI)",0.51
same,Kp at 3 h,[8]; [10],0.46
same,Kp at 0.5 h,"[8]; both sexes, human, ELF/plasma, iv, healthy subjects, relebactam 250 mg with imipenem-cilastatin 500 mg IV every 6 h, 5 doses, 0.5 h after last dose, n=4, read-out: ELF/plasma concn GMR (90% CI)",0.32
same,AUC(0-inf),[8]; [11],23.6 µM·h
same,Cmax,[8]; [11],7.81 µM
same,Tmax,[8]; [11],1 h
same,AUC(0-t),[8]; [11],12.8 µM·h
same,AUC(0-inf),[8]; [12],34.9 µM·h
same,Cmax,[8]; [12],15.3 µM
same,Tmax,[8]; [12],0.5 h
same,AUC(0-t),[8]; [12],26.7 µM·h
same,AUC(0-inf),[8]; [13],81.2 µM·h
same,Cmax,[8]; [13],47.9 µM
same,Tmax,[8]; [13],0.5 h
same,AUC(0-t),[8]; [13],64.7 µM·h
same,half-life,"[8]; both sexes, human, plasma, intravenous, plasma, same regimen",1.2 h
same,Adjusted ELF/plasma AUC0–∞ ratio,"[8]; calculated as 100 · ELF AUC0–∞/plasma AUC0–∞/0.8, adjusted for protein binding (80% unbound in plasma, 100% free in ELF)",53.7%
same,t1/2 (terminal half-life),"[8]; plasma, same regimen",1.24 h
same,"Relebactam/imipenem concn ratio in ELF, GMR","[8]; same regimen, 0.5 h after last dose",0.47
same,"Relebactam/imipenem concn ratio in ELF, GMR","[8]; same regimen, 1 h after last dose",0.54
same,"Relebactam/imipenem concn ratio in ELF, GMR","[8]; same regimen, 1.5 h after last dose",0.58
same,"Relebactam/imipenem concn ratio in ELF, GMR","[8]; same regimen, 3 h after last dose",0.71
